Reference: patent US20050238724A1, “Pharmaceutical composition containing lamotrigine particles of defined morphology” (Teva Pharmaceutical Industries Ltd., priority 2002, published 2005)

What was measured:
[1] = Particle diameter by laser diffraction (Malvern Mastersizer); type: physicochemical
Description: The “particle diameter” refers to the equivalent spherical diameter as determined by laser light scattering method. Particle diameter of lamotrigine was determined by laser diffraction. We determined the diameter of lamotrigine particles using a Malvern™ Mastersizer laser diffraction instrument. Samples of lamotrigine were suspended in hexane containing a surfactant (0.07% dioctyl sulfosuccinate sodium salt). The suspensions were mixed and then sonicated for 15 seconds to thoroughly disperse the lamotrigine particles. The dispersion was then recirculated in the flow cell of the Malvern Mastersizer for two minutes before particle diameter measurements were taken.

[2] = Specific surface area by gas adsorption, multipoint BET (Coulter SA3100); type: physicochemical; settings: micronized particles; degassing 70° C., 30 minutes; 10 points
From the text: Gas adsorption analysis is a preferred method for determining the surface area of a sample of lamotrigine for purposes of this invention since it provides a direct measurement of surface area. It is therefore considered to be more accurate than other methods such as electron microscopy and laser diffraction that rely upon a model to obtain a value for surface area (e.g. equivalent sphere model).
We measured specific particle surface area by gas adsorption using a Coulter™ SA3100 Series adsorption analyzer. The specific surface area of a sample of lamotrigine particles was calculated by the multipoint Brunauer, Emmet and Teller (BET) method. Brunauer, S., P. H. Emmett, E. Teller, J. Am. Chem. Soc., 1938, 60, 309-319. The calculations of the surface area of lamotrigine particles and its precise weight would yield specific surface area (usually expressed as square meters/gram). […] The volume of the manifold was measured with helium gas using a conventional technique. […] The instrument's software calculated the moles of adsorbed N2 (based upon inputted sample mass, manifold volume and sample tube void volume) for ten equilibrium pressures (Ps). […]
The specific surface area of the lamotrigine particles was measured with a Coulter SA 3100, using the multipoint BET technique. […] For the linearity, 10 points were measured, using high sensitivity.

[3] = initial particles before air jet milling

| particle diameter, 50% of the particles equal to or less than [1, 3] [μm] | particle diameter, about 80% of the particles equal to or less than [1, 3] [μm] | specific surface area [2] | diameter of all particles in the plurality ([1]; after micronization in air jet mill) | Compound |
| --- | --- | --- | --- | --- |
| ≤ 250 | ≤ 500 |  |  | Nc1nnc(-c2cccc(Cl)c2Cl)c(N)n1 [Lamotrigine, 3,5-diamino-6-(2,3-dichlorophenyl)-1,2,4-triazine] |
|  |  | 3.1-3.3 square meters per gram | less than 100 μm | Nc1nnc(-c2cccc(Cl)c2Cl)c(N)n1 [lamotrigine micronized particles, 3,5-diamino-6-(2,3-dichlorophenyl)-1,2,4-triazine] |
